PMC7997411, “Discovery and Optimization of Selective Inhibitors of Meprin α (Part II)” (Pharmaceuticals, 2021)
Where “and” joins values, the source holds several entries; their conditions need not be identical. Equal values may be shown once.

Assays:
Format in all cases: biochemical
[1] = molecular target: T1, MMP9 (Homo sapiens, UniProt P14780); assay: MMP assay (fluorogenic substrate ES010)
T1 construct: purchased R&D Systems 911-MP
Experimental: (§1) MMP-1, MMP-2, MMP-8, MMP-9, MMP-10, MMP-13, MMP-14, ADAM10, ADAM17 and Mca-KPLGL-Dpa-AR-NH2 fluorogenic peptide substrate were purchased from R&D Systems (cat # 901-MP, 902-MP, 908-MP, 911-MP, 910-MP, 511-MM, 918-MP, 936-AD, 930-ADB, and ES010, respectively). All common chemicals were purchased from Sigma. NFF449 was purchased from Tocris (cat# 1391) and actinonin was from Sigma-Aldrich, St. Louis, MO, USA (cat# 01809).
(§2) All assays followed the same general protocol. 5 µL of 2× enzyme solution (5 nM) in assay buffer (50 mM Tricine, 50 mM NaCl, 10 mM CaCl2, 0.05% Brij-35, pH 7.5) were added to solid-bottom black 384 plates (Nunc, cat# 264705). Next, test compounds and pharmacological controls were added to corresponding wells using a 384-pin tool device (V&P Scientific, San Diego). After 30 min incubation at RT, the reactions were started by addition of 5 µL of 2× solutions of MMP substrate (R&D Systems cat#: ES010, 20 µM). Reactions were incubated at RT for 1 h, after which the fluorescence was measured using the Synergy H4 multimode microplate reader (Biotek Instruments) (λexcitation = 324 nm, λemission = 390 nm). All compounds were tested in 10-point, 1:3 serial dilutions dose-response format starting with highest concentration of 100 µM. IC50 values were determined using non-linear regression analysis using the GraphPad Prism 8.0 suite of programs.

[2] = molecular target: T2, MMP2 (Homo sapiens, UniProt P08253); assay: MMP assay (fluorogenic substrate ES010)
T2 construct: purchased R&D Systems 902-MP
T2 sequence (P08253 110-660): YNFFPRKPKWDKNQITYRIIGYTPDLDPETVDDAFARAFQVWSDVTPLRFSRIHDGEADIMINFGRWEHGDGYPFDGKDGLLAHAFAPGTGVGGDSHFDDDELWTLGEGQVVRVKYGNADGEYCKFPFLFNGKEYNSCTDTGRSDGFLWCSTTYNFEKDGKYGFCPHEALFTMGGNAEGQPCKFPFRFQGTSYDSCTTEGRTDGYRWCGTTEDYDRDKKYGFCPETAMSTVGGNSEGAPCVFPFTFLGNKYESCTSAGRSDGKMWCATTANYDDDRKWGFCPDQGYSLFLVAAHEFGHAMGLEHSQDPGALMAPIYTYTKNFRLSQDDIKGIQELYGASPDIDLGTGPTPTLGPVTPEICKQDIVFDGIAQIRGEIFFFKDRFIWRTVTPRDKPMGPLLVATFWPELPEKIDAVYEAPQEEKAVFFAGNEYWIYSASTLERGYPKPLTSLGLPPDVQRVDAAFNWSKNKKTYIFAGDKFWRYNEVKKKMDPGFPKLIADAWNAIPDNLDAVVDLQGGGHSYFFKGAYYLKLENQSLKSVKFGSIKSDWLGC
Experimental: as §1, §2

[3] = molecular target: T3, MMP14 (Homo sapiens, UniProt P50281); assay: MMP assay (fluorogenic substrate ES010)
T3 construct: purchased R&D Systems 918-MP
Experimental: as §1, §2

[4] = molecular target: T4, MMP13 (Homo sapiens, UniProt P45452); assay: MMP assay (fluorogenic substrate ES010)
T4 construct: purchased R&D Systems 511-MM
Experimental: as §1, §2

[5] = molecular target: T5, MMP8 (Homo sapiens, UniProt P22894); assay: MMP assay (fluorogenic substrate ES010)
T5 construct: purchased R&D Systems 908-MP
T5 sequence (P22894 101-467): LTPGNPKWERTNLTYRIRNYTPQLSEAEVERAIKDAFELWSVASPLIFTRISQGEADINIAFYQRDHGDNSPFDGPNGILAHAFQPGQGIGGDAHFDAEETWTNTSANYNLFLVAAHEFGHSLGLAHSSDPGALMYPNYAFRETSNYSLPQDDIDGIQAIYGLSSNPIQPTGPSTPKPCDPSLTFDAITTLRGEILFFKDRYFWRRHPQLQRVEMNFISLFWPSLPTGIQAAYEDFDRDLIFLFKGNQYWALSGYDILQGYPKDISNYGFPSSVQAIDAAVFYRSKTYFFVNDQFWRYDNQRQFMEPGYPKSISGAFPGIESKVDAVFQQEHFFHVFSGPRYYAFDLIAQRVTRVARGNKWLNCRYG
Experimental: as §1, §2

[6] = molecular target: T6, human meprin β (Homo sapiens, UniProt Q16820); assay: Meprin β assay in a 384-well plate (fluorogenic substrate Mca-EDEDED-K(Dnp)); conditions: for IC50: triplicate, ± SD
T6 construct: His-tag; made in house; host or cells: BTI-TN-5B1-4 insect cells (baculovirus, amplified in Sf9)
T6 sequence (Q16820 62-701): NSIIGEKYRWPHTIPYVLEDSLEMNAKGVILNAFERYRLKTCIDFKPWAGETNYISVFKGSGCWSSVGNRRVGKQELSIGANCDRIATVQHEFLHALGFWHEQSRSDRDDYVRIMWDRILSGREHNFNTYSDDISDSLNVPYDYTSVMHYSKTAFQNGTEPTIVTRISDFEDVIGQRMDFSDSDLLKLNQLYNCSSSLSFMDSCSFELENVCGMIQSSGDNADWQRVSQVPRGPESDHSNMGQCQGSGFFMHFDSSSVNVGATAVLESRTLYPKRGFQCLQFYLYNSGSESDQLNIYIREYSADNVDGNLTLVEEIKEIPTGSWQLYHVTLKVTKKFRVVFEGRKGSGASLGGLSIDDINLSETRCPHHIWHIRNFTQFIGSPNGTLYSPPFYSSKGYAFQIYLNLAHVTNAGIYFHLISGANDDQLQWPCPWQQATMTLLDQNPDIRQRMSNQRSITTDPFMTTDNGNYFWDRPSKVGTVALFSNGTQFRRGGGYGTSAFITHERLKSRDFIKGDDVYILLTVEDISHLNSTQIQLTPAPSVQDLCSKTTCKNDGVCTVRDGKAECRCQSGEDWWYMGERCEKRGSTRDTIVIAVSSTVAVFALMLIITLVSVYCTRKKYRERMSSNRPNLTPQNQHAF
Experimental: Recombinant human meprin α and meprin β were expressed using the Bac-to-Bac expression system (Gibco Life Technologies, Paisley, UK) as described before. Media and supplements were obtained from Gibco Life Technologies. Recombinant Baculoviruses were amplified in adherently growing Spodoptera frugiperda (Sf)9 insect cells at 27 °C in Grace’s insect medium supplemented with 10% fetal bovine serum, 50 units/mL penicillin, and 50 μg/mL streptomycin. Protein expression was performed in 500 mL suspension cultures of BTI-TN-5B1-4 insect cells growing in Express Five SFM supplemented with 4 mM glutamine, 50 units/mL penicillin, and 50 μg/mL streptomycin in Fernbach-flasks using a Multitron orbital shaker (INFORS AG, Bottmingen, Switzerland). Cells were infected at a density of 2 × 10^6 cells/mL with an amplified viral stock at a MOI of ~10. […] Meprins were activated by trypsin, which was removed afterwards by affinity chromatography using a column containing immobilized chicken ovomucoid, a trypsin inhibitor.
Both assays followed the same general protocol. […] After 30 min incubation at RT, the reactions were started by addition of 5 µL of 2× solutions of substrates (20 µM, meprin α Mca-YVADAPK-K(Dnp), and for meprin β Mca-EDEDED-K(Dnp)).

T1 sequence (P14780 94-707): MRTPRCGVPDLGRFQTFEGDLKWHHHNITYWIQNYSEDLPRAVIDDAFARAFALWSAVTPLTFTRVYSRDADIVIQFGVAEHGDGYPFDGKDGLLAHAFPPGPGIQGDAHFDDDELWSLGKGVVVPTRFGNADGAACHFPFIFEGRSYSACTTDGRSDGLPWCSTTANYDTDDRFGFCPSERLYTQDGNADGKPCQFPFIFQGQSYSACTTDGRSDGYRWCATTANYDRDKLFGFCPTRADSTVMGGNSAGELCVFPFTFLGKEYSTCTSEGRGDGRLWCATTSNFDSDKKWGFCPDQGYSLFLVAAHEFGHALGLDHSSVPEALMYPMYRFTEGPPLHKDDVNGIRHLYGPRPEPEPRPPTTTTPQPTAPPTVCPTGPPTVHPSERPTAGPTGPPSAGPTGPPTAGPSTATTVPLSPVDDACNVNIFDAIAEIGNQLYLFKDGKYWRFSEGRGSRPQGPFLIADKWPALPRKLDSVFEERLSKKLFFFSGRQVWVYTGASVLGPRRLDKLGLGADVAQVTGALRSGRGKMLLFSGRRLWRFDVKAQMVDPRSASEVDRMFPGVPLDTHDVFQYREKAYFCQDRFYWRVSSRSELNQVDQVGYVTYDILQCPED

IC50 [1] [µM] | IC50 [2] [µM] | IC50 [3] [µM] | IC50 [4] [µM] | IC50 [5] [µM] | IC50 [6] | extent of meprin β inhibition (in words) ([6]; scale-up batch, higher doses tested, Figure 4A) | SMILES
0.1 ± 0.01 | 0.09 | > 1000 | 0.1 | 0.19 | 4.8 ± 0.5 µM | – | CCCCC[C@H](CC(=O)NO)C(=O)N[C@H](C(=O)N1CCC[C@H]1CO)C(C)C [Actinonin, actinonin, reference compound]
> 100 | > 100 | > 100 | > 100 | > 100 | ≥ 70 µM and 70 µM | only partial meprin β inhibition | COc1cc(OC)nc(SCc2nnc(SCC(=O)NO)n2-c2ccc(N(C)C)cc2)n1 [SR24717]
